According to patent publication US20170218445A1, “DRUG DISCOVERY METHODS USING PLANT DEVELOPMENTAL BIOLOGY” (SEOUL NATIONAL UNIVERSITY R&DB FOUNDATION, priority 2014, published 2017):

Test system: A. thaliana seedlings
Experiment: Growth and development response of A. thaliana seedlings grown in liquid medium with anticancer drug or hot-water extract
Type: in vivo, Arabidopsis thaliana
Conditions: for generation of lateral roots: anticancer drug treatment; for hypocotyl length growth depending on concentration: statistical computing, FIG. 11
Procedure: The Columbia seeds collected from wild-type A. thaliana plants were sterilized and then kept in a dark place at 4° C. for 3 days to enhance germination rate thereof. The wild-type A. thaliana seeds sown on an MS solid medium containing agar were germinated at 22° C. and on the long day condition of 16 hours the day/8 hours night and allowed to grow the A. thaliana seedlings for three days.
The undiluted extract of traditional herbal medicinal material described above was diluted at the ratios of 0.5×, 0.25× and 0.05×, and the MS liquid medium of 1 ml was mixed well with distilled water to make a total volume of 2 ml. in a 12-well cell culture plate. About ten A. thaliana seedlings were planted in each well and the plates were put on a shaker to cultivate them at 100 rpm for three days. Growth and development of the arabidopsis seedlings was analyzed after three days. Each test was carried out in 3 replicates.
The analysis of A. thaliana seedling response to anticancer drugs was made in the same manner, except that the anticancer drugs were applied instead of the traditional herbal medicinal material extract.
Root length, the number of lateral roots and hypocotyl length of the A. thaliana seedlings were measured in order to find the difference in developmental biology shown by the response of A. thaliana seedlings to the anticancer drugs and the extract. The ImageJ software (see rsb.info.nih.gov/ij/) was used to measure the respective lengths in images of the photograph file.
Crude extracts were made with the traditional herbal medicinal materials of each prescription and medicinal material components thereof, respectively, and the ⅕-fold-diluted solution was used as a first effective concentration. The solution was produced by adding 0.4 ml of the crude extract to 1 ml of the 0.5× MS medium and 0.6 ml of water.
For making more quantitative analysis of the reaction to respective traditional herbal medicinal materials, the number of lateral roots were measured for 12 or more A. thaliana seeedlings in each treatment group. […]

[1] = vs DMSO-treated control seedlings, FIG. 8

Row | Structure (SMILES) | generation of lateral roots at low concentration (0.05 uM) | generation of lateral roots (FIG. 8) | hypocotyl length growth depending on concentration | root morphology (2 uM, three days after treatment, vs water-treated control roots, FIG. 9) | number of lateral roots generated (treated or not with taxol, FIG. 8) | hypocotyl growth [1] | root growth [1] | trichome morphology (branches) (vs control group, FIG. 10)
1 | CC[C@@]1(O)C(=O)OCc2c1cc1n(c2=O)Cc2cc3ccccc3nc2-1 [camptothecin] | inhibited generation of lateral roots | markedly inhibited | inhibited in a significant level |  |  |  |  | 
2 | CC(=O)O[C@H]1C(=O)[C@@]2(C)[C@H]([C@H](OC(=O)c3ccccc3)[C@]3(O)C[C@H](OC(=O)[C@H](O)[C@@H](NC(=O)c4ccccc4)c4ccccc4)C(C)=C1C3(C)C)[C@]1(OC(C)=O)CO[C@@H]1C[C@@H]2O [taxol, Paclitaxel] |  | not significantly affected | inhibited in a significant level | dense root hairs and opaque epidermal cells | Approximately five | inhibited in proportion to the concentrations | inhibited in proportion to the concentrations | changed from the three-branch type to the one-branch type
